From patent US10548877B2, “Aromatic ring compound” (TAKEDA PHARMACEUTICAL COMPANY LIMITED, priority 2016, dated 2020)

Biological target: T1, human M1 receptor (hCHRM1) (Homo sapiens, UniProt P11229)
T1 construct: expressed in transfected cells
T1 sequence (P11229 1-460): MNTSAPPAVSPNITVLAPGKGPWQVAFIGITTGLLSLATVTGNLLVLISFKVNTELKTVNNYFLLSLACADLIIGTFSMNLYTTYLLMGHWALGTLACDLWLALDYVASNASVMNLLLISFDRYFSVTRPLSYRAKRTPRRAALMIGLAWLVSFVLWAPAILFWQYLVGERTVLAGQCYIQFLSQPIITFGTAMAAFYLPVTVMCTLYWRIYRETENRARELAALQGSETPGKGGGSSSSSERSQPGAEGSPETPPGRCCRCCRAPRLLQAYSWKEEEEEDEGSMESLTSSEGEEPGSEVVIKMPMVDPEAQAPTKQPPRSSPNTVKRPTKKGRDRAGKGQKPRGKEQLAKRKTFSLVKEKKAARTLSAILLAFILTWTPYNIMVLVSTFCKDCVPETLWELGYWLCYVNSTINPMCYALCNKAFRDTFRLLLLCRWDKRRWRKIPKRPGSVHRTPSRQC
Assay: Measurement of M1 receptor positive allosteric modulator (M1PAM) activity (calcium fluorescence, Fluo-4)
Assay type: cell-based
Conditions: for EC50: inflection point of concentration-dependent curve, CHO-K1 cells stably expressing hCHRM1, in presence of acetylcholine at EC20 (final 0.8-1.0 nM), read-out: IP value; for activity (%) at 10 μM: test compound 10 μM with acetylcholine at EC20, 100% = 1 μM acetylcholine, 0% = DMSO, CHO-K1 cells expressing hCHRM1
Protocol: Measurement of M1 Receptor Positive Allosteric Modulator (M1PAM) Activity
The activity of a test compound in the presence of acetylcholine at EC20 concentration (final concentration 0.8-1.0 nM), which affords an action corresponding to about 20% of the maximum activity, was measured as PAM activity. The method is as follows. CHO-K1 cells stably expressing a human M1 receptor (hCHRM1) were plated on a 384-well black clear bottom plate (BD Falcon) at 5,000 cells/well, and cultured in an incubator at 37° C., 5% CO2 for 1 day. The medium in the cell plate was removed, and assay buffer A containing a calcium indicator (Recording medium (DOJINDO LABORATORIES), 0.1% BSA (Wako Pure Chemical Industries, Ltd.), 2.5 μg/mL Fluo-4 AM (DOJINDO LABORATORIES), 0.08% Pluronic F127 (DOJINDO LABORATORIES) and 1.25 mM probenecid (DOJINDO LABORATORIES) were added at 30 μL/well. The cells were left standing in the incubator at 37° C., 5% CO2 for 30 min, and further left standing at room temperature for 30 min. A test compound prepared by diluting with assay buffer B (HBSS (Invitrogen), 20 mM HEPES (Invitrogen), 0.1% BSA) containing 3.2-4.0 nM acetylcholine was added at 10 μL/well, and the fluorescence was measured by FDSS/pcell (Hamamatsu Photonics K.K.) for 1 min every for 1 second. With the definition that the amount of change in the fluorescence on addition of acetylcholine (final concentration 1 μM) is 100% and that on addition of DMSO instead of a test compound is 0%, the activity (%) of the test compound was calculated, and the inflection point in the concentration-dependent curve of the test compound was calculated as IP values.

EC50	activity (%) at 10 μM	Compound
20 nM	100%	COc1c(C(=O)N[C@H]2COCC[C@@H]2O)cc(Cc2ccc(-c3cn(C)nc3C)nc2)c(C)c1C [Example 28, 1,5-anhydro-2,4-dideoxy-2-((5-((6-(1,3-dimethyl-1H-pyrazol-4-yl)pyridin-3-yl)methyl)-2-methoxy-3,4-dimethylbenzoyl)amino)-L-threo-pentitol]
48 nM	97%	COc1c(C(=O)N[C@H]2COCC[C@@H]2O)cc(Cc2ccc(-c3cn(C)nc3C)cc2)c(C)c1C [Example 29, 1,5-anhydro-2,4-dideoxy-2-((5-(4-(1,3-dimethyl-1H-pyrazol-4-yl)benzyl)-2-methoxy-3,4-dimethylbenzoyl)amino)-L-threo-pentitol]
67 nM	97%	COc1c(C(=O)N[C@H]2COCC[C@@H]2O)cc(Cc2ccc(-c3ccn(C)n3)nc2)c(C)c1C [Example 31, 1,5-anhydro-2,4-dideoxy-2-((2-methoxy-3,4-dimethyl-5-((6-(1-methyl-1H-pyrazol-3-yl)pyridin-3-yl)methyl)benzoyl)amino)-L-threo-pentitol]
16 nM	101%	Cc1c(Cc2ccc(-c3cscn3)cc2)cc(C(=O)N[C@H]2COCC[C@@H]2O)c(F)c1C [Example 32, 1,5-anhydro-2,4-dideoxy-2-((2-fluoro-3,4-dimethyl-5-(4-(1,3-thiazol-4-yl)benzyl)benzoyl)amino)-L-threo-pentitol]
